The values below are quoted from earlier work in patent publication US7994166B2, “Pyrrolidinone benzenesulfonamide derivatives as modulators of ion channels for the treatment of pain” (Vertex Pharmaceuticals Incorporated, priority 2007, dated 2011).

This series deals with NaV1.8 (Homo sapiens, UniProt Q9Y5Y9). As to conditions: read-out: TTX IC50.
NaV1.8, sequence (Q9Y5Y9 whole entry, looked up): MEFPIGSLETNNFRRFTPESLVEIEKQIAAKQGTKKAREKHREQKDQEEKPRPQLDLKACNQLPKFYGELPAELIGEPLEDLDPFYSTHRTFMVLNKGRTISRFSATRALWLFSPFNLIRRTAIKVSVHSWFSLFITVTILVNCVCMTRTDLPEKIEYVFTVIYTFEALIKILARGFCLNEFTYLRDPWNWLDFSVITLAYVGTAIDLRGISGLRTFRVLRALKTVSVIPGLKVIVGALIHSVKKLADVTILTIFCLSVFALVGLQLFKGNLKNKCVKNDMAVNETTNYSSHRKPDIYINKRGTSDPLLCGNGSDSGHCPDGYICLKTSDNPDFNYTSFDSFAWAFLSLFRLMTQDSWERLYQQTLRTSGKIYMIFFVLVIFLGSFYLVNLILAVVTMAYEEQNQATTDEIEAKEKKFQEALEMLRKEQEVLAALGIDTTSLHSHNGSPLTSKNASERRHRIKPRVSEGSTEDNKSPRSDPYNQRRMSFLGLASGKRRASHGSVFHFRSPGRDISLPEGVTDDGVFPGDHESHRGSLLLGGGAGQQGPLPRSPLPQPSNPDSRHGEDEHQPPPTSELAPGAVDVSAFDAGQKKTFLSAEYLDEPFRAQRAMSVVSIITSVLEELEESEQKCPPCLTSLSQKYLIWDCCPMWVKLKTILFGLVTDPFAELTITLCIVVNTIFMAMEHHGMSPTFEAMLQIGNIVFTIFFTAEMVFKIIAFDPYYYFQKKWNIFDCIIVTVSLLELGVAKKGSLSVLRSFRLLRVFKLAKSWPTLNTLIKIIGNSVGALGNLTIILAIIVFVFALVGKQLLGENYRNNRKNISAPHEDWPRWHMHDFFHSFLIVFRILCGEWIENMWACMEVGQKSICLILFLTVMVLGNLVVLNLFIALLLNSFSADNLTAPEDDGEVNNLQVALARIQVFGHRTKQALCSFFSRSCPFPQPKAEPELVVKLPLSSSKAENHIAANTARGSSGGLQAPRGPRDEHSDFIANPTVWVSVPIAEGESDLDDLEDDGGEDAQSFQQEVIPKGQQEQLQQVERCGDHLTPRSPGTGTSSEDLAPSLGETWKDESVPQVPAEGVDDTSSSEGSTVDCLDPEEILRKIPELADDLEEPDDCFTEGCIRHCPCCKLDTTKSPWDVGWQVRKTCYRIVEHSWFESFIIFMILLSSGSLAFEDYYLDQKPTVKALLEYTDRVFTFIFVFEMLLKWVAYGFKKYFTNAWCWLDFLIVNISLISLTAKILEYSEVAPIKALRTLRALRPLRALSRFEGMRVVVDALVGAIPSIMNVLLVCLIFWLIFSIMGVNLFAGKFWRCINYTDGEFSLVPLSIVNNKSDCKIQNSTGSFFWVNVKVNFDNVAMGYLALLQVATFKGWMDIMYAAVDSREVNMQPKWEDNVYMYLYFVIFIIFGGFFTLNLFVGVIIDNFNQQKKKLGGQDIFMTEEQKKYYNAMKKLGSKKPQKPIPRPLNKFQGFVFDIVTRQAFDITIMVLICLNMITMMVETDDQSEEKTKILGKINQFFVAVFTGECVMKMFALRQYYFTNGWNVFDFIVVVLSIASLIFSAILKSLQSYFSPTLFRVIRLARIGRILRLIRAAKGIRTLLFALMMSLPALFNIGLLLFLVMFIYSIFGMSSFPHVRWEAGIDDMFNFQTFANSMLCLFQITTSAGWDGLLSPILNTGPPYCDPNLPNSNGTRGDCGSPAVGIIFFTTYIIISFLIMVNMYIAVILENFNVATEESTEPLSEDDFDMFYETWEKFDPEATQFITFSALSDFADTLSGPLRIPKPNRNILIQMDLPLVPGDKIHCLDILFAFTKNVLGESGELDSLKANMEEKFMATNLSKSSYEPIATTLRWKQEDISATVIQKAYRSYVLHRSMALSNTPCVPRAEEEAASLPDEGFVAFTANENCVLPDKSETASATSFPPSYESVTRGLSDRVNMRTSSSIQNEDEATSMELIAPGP

For `NC1=N[C@H](O)[C@H]2[C@H]3O[C@]4(O)O[C@@H]([C@@H](O)[C@@]2(N1)[C@@H]4O)[C@]3(O)CO` [TTX, tetrodotoxin], the IC50 was more than 50 µM.
